Assay results from patent publication US9376426B2, “Pyridazinone derivatives” (MERCK PATENT GMBH, priority 2009, dated 2016).
Counter-ions that a name gives are not always drawn.

Tests used:
[1] = target: T1, Met kinase (Homo sapiens, UniProt P08581); assay: Met kinase inhibition, flashplate method (enzyme); type: biochemical; design: 6His (N); purchased Upstate 14-526; host or cells: Sf21 insect cells (S. frugiperda), baculovirus
Excerpt: Measurement of Met Kinase Activity
According to the manufacturer's data (Met, active, upstate, catalogue No. 14-526), Met kinase is expressed for the purposes of protein production in insect cells (Sf21; S. frugiperda) and subsequent affinity-chromatographic purification as “N-terminal 6His-tagged” recombinant human protein in a baculovirus expression vector.
Flashplate Method (Met Kinase)
The test plates used are 96-well Flashplate® microtitre plates from Perkin Elmer (Cat. No. SMP200). The components of the kinase reaction described below are pipetted into the assay plate. The Met kinase and the substrate poly Ala-Glu-Lys-Tyr, (pAGLT, 6:2:5:1), are incubated for 3 hrs at room temperature with radioactively labelled ^33P-ATP in the presence and absence of test substances in a total volume of 100 μl. The reaction is terminated using 150 μl of a 60 mM EDTA solution. After incubation for a further 30 min at room temperature, the supernatants are filtered off with suction, and the wells are washed three times with 200 μl of 0.9% NaCl solution each time. The measurement of the bound radioactivity is carried out by means of a scintillation measuring instrument (Topcount NXT, Perkin-Elmer).
The full value used is the inhibitor-free kinase reaction. This should be approximately in the range 6000-9000 cpm. The pharmacological zero value used is staurosporin in a final concentration of 0.1 mM. The inhibitory values (IC50) are determined using the RS1_MTS program.
Kinase reaction conditions per well:
10 μl of substance to be tested in assay buffer with 10% of DMSO
10 μl of ATP (final concentration 1 μM cold, 0.35 μCi of ^33P-ATP)
50 μl of Met kinase/substrate mixture in assay buffer;
• (10 ng of enzyme/well, 50 ng of pAGLT/well) • Solutions used: • Assay buffer: • 50 mM HEPES • 3 mM magnesium chloride • 3 μM sodium orthovanadate • 3 mM manganese(II) chloride • 1 mM dithiothreitol (DTT) • pH=7.5 (to be set using sodium hydroxide) • Stop solution: • 60 mM Titriplex III (EDTA) • ^33P-ATP: Perkin-Elmer; • Met kinase: Upstate, Cat. No. 14-526, Stock 1 μg/10 μl; spec. activity 954 U/mg; • Poly-Ala-Glu-Lys-Tyr, 6:2:5:1:Sigma Cat. No. P1152 In-Vivo Tests Experimental Procedure: […]

[2] = target: T1, Met kinase; assay: Met kinase inhibition (cell); type: cell-based

T1 sequence (P08581 25-1390): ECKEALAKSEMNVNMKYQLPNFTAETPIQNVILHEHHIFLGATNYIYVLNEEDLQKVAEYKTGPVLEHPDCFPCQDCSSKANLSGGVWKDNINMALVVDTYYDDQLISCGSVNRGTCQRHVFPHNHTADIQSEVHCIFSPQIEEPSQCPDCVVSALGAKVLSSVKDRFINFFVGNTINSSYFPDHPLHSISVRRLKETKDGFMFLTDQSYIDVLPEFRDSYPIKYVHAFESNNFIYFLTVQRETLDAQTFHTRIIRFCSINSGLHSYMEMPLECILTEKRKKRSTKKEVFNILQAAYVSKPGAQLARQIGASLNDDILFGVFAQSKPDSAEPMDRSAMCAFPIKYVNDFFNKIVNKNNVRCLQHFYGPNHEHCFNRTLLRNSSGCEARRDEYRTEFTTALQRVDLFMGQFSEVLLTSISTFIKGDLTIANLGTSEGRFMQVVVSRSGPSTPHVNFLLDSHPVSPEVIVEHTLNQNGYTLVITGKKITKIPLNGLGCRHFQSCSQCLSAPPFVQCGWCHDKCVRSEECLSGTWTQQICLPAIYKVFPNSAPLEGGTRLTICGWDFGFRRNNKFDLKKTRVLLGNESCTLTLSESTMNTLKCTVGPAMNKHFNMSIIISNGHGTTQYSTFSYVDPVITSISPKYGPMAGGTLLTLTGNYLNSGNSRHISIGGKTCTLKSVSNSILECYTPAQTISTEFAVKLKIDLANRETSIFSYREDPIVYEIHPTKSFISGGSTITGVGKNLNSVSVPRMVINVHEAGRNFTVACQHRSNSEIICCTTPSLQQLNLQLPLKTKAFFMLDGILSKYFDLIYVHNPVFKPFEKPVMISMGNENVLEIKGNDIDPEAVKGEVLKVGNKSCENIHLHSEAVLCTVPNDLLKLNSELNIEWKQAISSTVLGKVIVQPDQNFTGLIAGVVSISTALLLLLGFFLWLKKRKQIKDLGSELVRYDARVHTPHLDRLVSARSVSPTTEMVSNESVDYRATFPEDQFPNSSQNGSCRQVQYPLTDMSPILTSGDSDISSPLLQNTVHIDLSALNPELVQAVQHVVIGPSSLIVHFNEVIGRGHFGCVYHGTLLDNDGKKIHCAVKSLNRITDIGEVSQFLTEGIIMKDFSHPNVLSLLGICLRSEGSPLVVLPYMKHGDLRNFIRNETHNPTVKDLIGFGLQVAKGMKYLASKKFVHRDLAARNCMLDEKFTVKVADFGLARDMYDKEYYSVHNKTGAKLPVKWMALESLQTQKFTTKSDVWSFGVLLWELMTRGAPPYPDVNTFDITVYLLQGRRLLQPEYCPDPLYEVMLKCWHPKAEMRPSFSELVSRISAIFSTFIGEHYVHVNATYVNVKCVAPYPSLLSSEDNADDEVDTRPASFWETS

Structure (SMILES) | IC50 [1] [nM] | IC50 [2] [nM]
O=c1ccc(Oc2ccccc2)nn1Cc1cccc(-c2ncc(-c3cnn(C4CCNCC4)c3)cn2)c1 [Compound A4, 6-phenoxy-2-{3-[5-(1-piperidin-4-yl-1H-pyrazol-4-yl)pyrimidin-2-yl]benzyl}-2H-pyridazin-3-one hydrochloride] | 100 to 10000 | 100 to 10000
CN(C)CCCOc1cnc(-c2cccc(Cn3nc(C(N)=O)ccc3=O)c2)nc1 [Compound A8, 1-{3-[5-(3-dimethylaminopropoxy)pyrimidin-2-yl]benzyl}-6-oxo-1,6-dihydropyridazine-3-carboxamide] | 100 to 10000 | 100 to 10000

Continued, values first:

IC50 [1] [nM] | IC50 [2] [nM] | Structure (SMILES)
1 to 100 | 100 to 10000 | CN(C)CCCOc1cnc(-c2cccc(Cn3nc(Nc4ccccc4)ccc3=O)c2)nc1 [Compound A1, 2-{3-[5-(3-dimethylaminopropoxy)pyrimidin-2-yl]benzyl}-6-phenylamino-2H-pyridazin-3-one]
1 to 100 | 100 to 10000 | O=c1ccc(Nc2ccccc2)nn1Cc1cccc(-c2ncc(-c3cnn(C4CCNCC4)c3)cn2)c1 [Compound A2, 6-phenylamino-2-{3-[5-(1-piperidin-4-yl-1H-pyrazol-4-yl)pyrimidin-2-yl]benzyl}-2H-pyridazin-3-one]
1 to 100 | 100 to 10000 | O=c1ccc(Oc2ccccc2)nn1Cc1cccc(-c2ncc(-c3cnn(CCN4CCCC4)c3)cn2)c1 [Compound A3, 6-phenoxy-2-(3-{5-[1-(2-pyrrolidin-1-ylethyl)-1H-pyrazol-4-yl]pyrimidin-2-yl}benzyl)-2H-pyridazin-3-one]
